Test results from ChEMBL document CHEMBL3045446, “In vitro antimicrobial and antimycobacterial activity of some chalcones and their derivatives” (2013).
≈ marks a conversion by molar mass, not a printed value. Calls of active or inactive are those of the source. The calls are words filed in the database; no cut-off is given here.

What was measured:
[1] = tested on: Candida albicans; experiment: Antimicrobial activity against Candida albicans MTCC 183 assessed as diameter of growth inhibition zone after 48 hr; type: functional
[2] = tested on: Pseudomonas aeruginosa; experiment: Antimicrobial activity against Pseudomonas aeruginosa MTCC 741 assessed as growth inhibition at 100 ug/ml after 24 hr by agar streak dilution method; type: functional, organism-based
[3] = tested on: Escherichia coli; experiment: Antimicrobial activity against Escherichia coli MTCC 739 assessed as diameter of growth inhibition zone after 24 hr; type: functional
[4] = tested on: Aspergillus niger; experiment: Antimicrobial activity against Aspergillus niger MTCC 282 assessed as diameter of growth inhibition zone after 48 hr; type: functional
[5] = tested on: Shigella flexneri; experiment: Antimicrobial activity against Shigella flexneri MTCC1457 assessed as growth inhibition after 24 hr by agar streak dilution method; type: functional; conditions: MTCC1457, 24 h
[6] = tested on: Klebsiella pneumoniae; experiment: Antimicrobial activity against Klebsiella pneumoniae MTCC 109 assessed as growth inhibition after 24 hr by agar streak dilution method; type: functional; conditions: MTCC 109, 24 h
[7] = tested on: Klebsiella pneumoniae; experiment: Antimicrobial activity against Klebsiella pneumoniae MTCC 109 assessed as diameter of growth inhibition zone after 24 hr; type: functional
[8] = tested on: Shigella flexneri; experiment: Antimicrobial activity against Shigella flexneri MTCC1457 assessed as diameter of growth inhibition zone after 24 hr; type: functional
[9] = tested on: Salmonella typhi; experiment: Antimicrobial activity against Salmonella enterica subsp. enterica serovar Typhi MTCC 733 assessed as growth inhibition after 24 hr by agar streak dilution method; type: functional; conditions: MTCC 733, 24 h
[10] = tested on: Aspergillus fumigatus; experiment: Antimicrobial activity against Aspergillus fumigatus MTCC 343 assessed as diameter of growth inhibition zone after 48 hr; type: functional
[11] = tested on: Aspergillus clavatus; experiment: Antimicrobial activity against Aspergillus clavatus MTCC 1323 assessed as growth inhibition after 48 hr by agar streak dilution method; type: functional; conditions: MTCC 1323, 48 h
[12] = tested on: Escherichia coli; experiment: Antimicrobial activity against Escherichia coli MTCC 739 assessed as growth inhibition after 24 hr by agar streak dilution method; type: functional; conditions: MTCC 739, 24 h
[13] = tested on: Salmonella typhi; experiment: Antimicrobial activity against Salmonella enterica subsp. enterica serovar Typhi MTCC 733 assessed as diameter of growth inhibition zone after 24 hr; type: functional
[14] = tested on: Mycobacterium tuberculosis; experiment: Antituberculosis activity against Mycobacterium tuberculosis H37Rv assessed as growth inhibition after 12 to 28 days by L-J MIC method; type: functional; conditions: for MIC: Mycobacterium tuberculosis, H37Rv
[15] = tested on: Bacillus cereus; experiment: Antimicrobial activity against Bacillus cereus MTCC 430 assessed as growth inhibition at 100 ug/ml after 24 hr by agar streak dilution method; type: functional, organism-based
[16] = tested on: Aspergillus niger; experiment: Antimicrobial activity against Aspergillus niger MTCC 282 assessed as growth inhibition after 48 hr by agar streak dilution method; type: functional; conditions: MTCC 282, 48 h
[17] = tested on: Staphylococcus aureus; experiment: Antimicrobial activity against Staphylococcus aureus MTCC 96 assessed as diameter of growth inhibition zone after 24 hr; type: functional
[18] = tested on: Proteus vulgaris; experiment: Antimicrobial activity against Proteus vulgaris MTCC 1771 assessed as growth inhibition at 100 ug/ml after 24 hr by agar streak dilution method; type: functional, organism-based
[19] = tested on: Staphylococcus aureus; experiment: Antimicrobial activity against Staphylococcus aureus MTCC 96 assessed as growth inhibition after 24 hr by agar streak dilution method; type: functional; conditions: MTCC 96, 24 h
[20] = tested on: Candida albicans; experiment: Antimicrobial activity against Candida albicans MTCC 183 assessed as growth inhibition after 48 hr by agar streak dilution method; type: functional; conditions: MTCC 183, 48 h
[21] = tested on: Aspergillus clavatus; experiment: Antimicrobial activity against Aspergillus clavatus MTCC 1323 assessed as diameter of growth inhibition zone after 48 hr; type: functional
[22] = tested on: Aspergillus fumigatus; experiment: Antimicrobial activity against Aspergillus fumigatus MTCC 343 assessed as growth inhibition after 48 hr by agar streak dilution method; type: functional; conditions: MTCC 343, 48 h
[23] = tested on: Shigella flexneri; experiment: Antimicrobial activity against Shigella flexneri MTCC1457 assessed as growth inhibition at 100 ug/ml after 24 hr by agar streak dilution method; type: functional, organism-based
[24] = tested on: Bacillus cereus; experiment: Antimicrobial activity against Bacillus cereus MTCC 430 assessed as diameter of growth inhibition zone after 24 hr; type: functional
[25] = tested on: Bacillus cereus; experiment: Antimicrobial activity against Bacillus cereus MTCC 430 assessed as growth inhibition after 24 hr by agar streak dilution method; type: functional; conditions: MTCC 430, 24 h
[26] = tested on: Escherichia coli; experiment: Antimicrobial activity against Escherichia coli MTCC 739 assessed as growth inhibition at 100 ug/ml after 24 hr by agar streak dilution method; type: functional, organism-based
[27] = tested on: Staphylococcus aureus; experiment: Antimicrobial activity against Staphylococcus aureus MTCC 96 assessed as growth inhibition at 100 ug/ml after 24 hr by agar streak dilution method; type: functional, organism-based
[28] = tested on: Pseudomonas aeruginosa; experiment: Antimicrobial activity against Pseudomonas aeruginosa MTCC 741 assessed as diameter of growth inhibition zone after 24 hr; type: functional
[29] = tested on: Pseudomonas aeruginosa; experiment: Antimicrobial activity against Pseudomonas aeruginosa MTCC 741 assessed as growth inhibition after 24 hr by agar streak dilution method; type: functional; conditions: MTCC 741, 24 h
[30] = tested on: Proteus vulgaris; experiment: Antimicrobial activity against Proteus vulgaris MTCC 1771 assessed as diameter of growth inhibition zone after 24 hr; type: functional
[31] = tested on: Proteus vulgaris; experiment: Antimicrobial activity against Proteus vulgaris MTCC 1771 assessed as growth inhibition after 24 hr by agar streak dilution method; type: functional; conditions: MTCC 1771, 24 h

SMILES | diameter of the inhibition zone (DIZ) [1] [mm] | growth inhibition (GI) [2] | diameter of the inhibition zone (DIZ) [3] [mm] | diameter of the inhibition zone (DIZ) [4] [mm] | MIC [5] [µg/mL] | MIC [6] [µg/mL] | diameter of the inhibition zone (DIZ) [7] [mm] | diameter of the inhibition zone (DIZ) [8] [mm] | MIC [9] [µg/mL] | diameter of the inhibition zone (DIZ) [10] [mm] | MIC [11] [µg/mL] | MIC [12] [µg/mL] | diameter of the inhibition zone (DIZ) [13] [mm] | growth inhibition (GI) [14] [%] | MIC [14] [µg/mL] | MIC [16] [µg/mL] | diameter of the inhibition zone (DIZ) [17] [mm] | MIC [20] [µg/mL] | diameter of the inhibition zone (DIZ) [21] [mm] | MIC [22] [µg/mL] | further results
O=C(/C=C/c1ccc([N+](=O)[O-])cc1)c1ccc(Nc2cc(=O)oc3ccccc23)cc1 | 10 | inactive | <10 | 11 | 100 (≈ 242 µM) | 100 (≈ 242 µM) | 11 | 13 | 100 (≈ 242 µM) | <10 | 100 (≈ 242 µM) | 100 (≈ 242 µM) | 14 | 95 | 1000 (≈ 2420 µM) | 100 (≈ 242 µM) | <10 | 100 (≈ 242 µM) | 12 | 100 (≈ 242 µM) | growth inhibition (GI) [15]: inactive; growth inhibition (GI) [18]: inactive; MIC [19]: 100 µg/mL (≈ 242 µM)
O=C(/C=C/c1ccccc1)c1ccc(Nc2cc(=O)oc3ccccc23)cc1 | <10 | inactive |  | <10 |  | 100 (≈ 272 µM) | <10 |  | 100 (≈ 272 µM) | 12 | 100 (≈ 272 µM) |  | 11 | 95 | 1000 (≈ 2720 µM) | 100 (≈ 272 µM) |  | 100 (≈ 272 µM) | 15 | 100 (≈ 272 µM) | growth inhibition (GI) [23]: inactive; diameter of the inhibition zone (DIZ) [24]: <10 mm; MIC [25]: 100 µg/mL (≈ 272 µM); growth inhibition (GI) [26]: inactive; growth inhibition (GI) [18]: inactive; growth inhibition (GI) [27]: inactive
O=C(/C=C/c1ccccc1Br)c1ccc(Nc2cc(=O)oc3ccccc23)cc1 | 18 |  | 11 | 12 | 100 (≈ 224 µM) | 100 (≈ 224 µM) | 14 | 12 | 100 (≈ 224 µM) | 15 | 100 (≈ 224 µM) | 100 (≈ 224 µM) | 11 | 97 | 500 (≈ 1120 µM) | 100 (≈ 224 µM) | 13 | 50 (≈ 112 µM) | 12 | 100 (≈ 224 µM) | diameter of the inhibition zone (DIZ) [28]: <10 mm; MIC [29]: 100 µg/mL (≈ 224 µM); diameter of the inhibition zone (DIZ) [24]: 11 mm; diameter of the inhibition zone (DIZ) [30]: <10 mm; MIC [25]: 100 µg/mL (≈ 224 µM); MIC [31]: 100 µg/mL (≈ 224 µM); MIC [19]: 100 µg/mL (≈ 224 µM)
